Measured values published in patent publication US20110318380A1, “MHC Multimers in Cancer Vaccines and Immune Monitoring” (priority 2008, published 2011).
Like-named read-outs stand apart in the source and are kept apart here.

What was measured:
T2 cells = conditions: cited from earlier work
[1] = target: purified folded MHC-complex (Example 37)
[2] = system: PBL from a breast cancer patient; conditions: with vs without peptide; in doublets; cited from earlier work
[3] = target: Bcl-X(L)173-182 specific CD8 T cells in PBL from a breast cancer patient; assay: flow cytometry of PBL ex vivo, APC dextramer with 7-AAD, CD3 and CD8; compared with an HIV specific dextramer as negative control

Substance: GLQHWVPEL (Irrelevant peptide) [BA4697-105, irrelevant peptide loaded on T2 target cells, reference compound]
- lysis of peptide-pulsed T2 cells (T2 cells; Clone 8, 9, 10, 11, and 12): without killing

Substance: W6/32 mouse-anti-HLA-ABC antibody (Dako M0736)
- OD450 ratio to the negative control β2m [1]: > 6 fold

Substance: YLNDHLEPWI (listed as Homo Sapiens)
- number of spots (IFN-gamma producing T-cells) [2]: clearly shows the presence of BclX(L) specific T-cells
- lysis of peptide-pulsed T2 cells (T2 cells; Clone 7, 13, 15, 17, and 18): did not show specific lysis
- lysis of peptide-pulsed T2 cells (T2 cells; Clone 8, 9, 10, 11, and 12): effectively lysed
- cell lysis of T2 cells pulsed with different concentrations of peptide (T2 cells; clone 9, E:T ratio 1:1): significant even at low concentrations
- cell lysis of peptide-pulsed T2 cells (T2 cells; clone 9, specific vs irrelevant peptide, three E:T ratios): necessary to get killing of the target cell

Substance: dextramer complex HLA-A2/Bcl-X(L)173-182-APC (from UniProt P61769 21-119) (peptide-MHC)
- level of dextramer positive CD-8 cells in the patient sample [3]: 0.03%
